Data published in patent US20120171123A1, “USES AND COMPOSITIONS FOR TREATMENT OF RHEUMATOID ARTHRITIS” (priority 2006, published 2012).

Experiments:
[1] = system: MTX-naïve adult patients with early RA (<3 years); assay: Study J: escalation of injectable medicine from eow to weekly dosing; format: in vivo, human
Procedure: Study J was a 2-year, double-blind, active comparator-controlled, Phase III study. […] In patients receiving ADA+MTX or MTX monotherapy, the 7.5 mg MTX weekly dosage increased to 20 mg over 8 weeks, as tolerated and as needed. Monotherapy patients received either placebo pills (adalimumab arm) or placebo injections (MTX arm). Efficacy outcomes measured included ACR response, DAS28 remission, major clinical response, and radiographic change from baseline.
MTX optimization was required before starting weekly injections (to 20 mg weekly, maximum). Once initiated, weekly dosing of injectable medicine was to be maintained until end of study. Criteria for identification of dosage escalators were a sequence of 4 consecutive injections for which the interval for every two consecutive injections was ≦10 days, and/or that the date of escalation, defined as the second of the 4 injections, had to be on or after Week 16 in Year 1. Three dosage escalator categories were defined, based on best ACR response rate achieved any time prior to escalation: Group A=ACR non-responders (never achieved ACR20 prior to dosage escalation), Group B=Partial responders (achieved ACR20 or ACR50 at least once prior to escalation, but never ACR70), and Group C=ACR70 responders (achieved ACR70 at least once prior to escalation). Data are from the intention-to-treat (ITT) population, with missing data analyzed by non-responder imputation (NRI) for clinical measures and by linear imputation for total Sharp scores (TSS).

[2] = system: RA patients treated with adalimumab in clinical trials in North America and Europe
Procedure: The rate of TB was calculated for the period before screening was initiated (primarily Phase I trials) and the period after screening was implemented. The screening program consisted of a clinical interview, a tuberculin skin test, and, in most patients, a chest X-ray (CXR). The definition of PPD-positive depended on local country-specific guidelines. For those people who were PPD-positive, or for whom the investigator felt the risk of TB reactivation was high, INH was given for prophylaxis.
The methodology differed among protocols. For instance, in Europe and Australia, it was initially used CXR only, and in later studies, CXR and purified protein derivative skin test (PPD) were both used. By contrast, in US and Canada, CXR and PPD were both used.

[3] = system: patients with moderate to severe RA; assay: Study 1: Health Utilities Index Mark 3 (HUI3); format: in vivo, human; settings: week 52
Procedure: The HUI3 was assessed at baseline, and at several time points during the study. Health Utility Index 3 (scale=0-1) measures preference of a health state, with “1” denoting perfect health and “0” denoting death. HUI3 changes of ≧0.03 are considered clinically important. The HUI3 classification system consists of 8 attributes and 5 or 6 levels on each attribute, ranging from full function to severe impairment.

patients with RA [4] = assay: Study I (adalimumab 40 mg eow + MTX vs placebo + MTX, 24 weeks): FACIT-F fatigue; format: in vivo, human; settings: for mean FACIT-F change from baseline: week 24 (6 months)
Procedure: FACIT-F was administered at baseline, at 1 or 2 time points during the study, and at the end of the study. The questionnaire asked each patient the following “Below is a list of statements that other people with your illness have said are important. By circling one (1) number per line, please indicate how true each statement has been for you during the past 7 days.” The questions in the questionnaire used to determine the FACIT score included the following, where each patient indicated the appropriate number (0-4): I feel fatigued; I feel weak all over; I feel listless (“washed out”); I feel tired; I have trouble starting things because I am tired; I have trouble finishing things because I am tired; I have energy; I am able to do my usual activities; I need to sleep during the day; I am too tired to eat; I need help doing my usual activities; I am frustrated by being too tired to do the things I want to do; I have to limit my social activity because I am tired. FACIT-F scores range from 0-52, with higher scores representing less fatigue. FACIT-F changes of ≧4 are considered clinically meaningful.
For Study I, the mean change in baseline for the FACIT-F score at 6 months was 8.1 for ada 40 mg eow+mtx and 2.5 for placebo+mtx (p=0.01). The minimum clinical important difference was determined to be ≧4.0.

patients with RA [5] = assay: Study I: HUI3 health utility; format: in vivo, human; settings: for mean HUI3 change from baseline: week 24 (6 months)
Procedure: Inclusion criteria for this study included: all patients had severe active disease; and all patients had failed prior DMARD(s).
The Health Utilities Index Mark 3 (HUI3) was assessed at three time points. HUI 3 consists of 8 attributes: vision, hearing, speech, ambulation, dexterity, emotion, cognition, and pain. HUI3 score changes of ≧0.03 are considered clinically important. […] As can also be seen in this figure, the Study 2 study population started with baseline values reflecting a patient population with a more severe disease activity than in Study I, as documented by TJC, SJC, HAQ, CRP, and number of previous DMARDs.

[6] = system: patients with long-standing RA who had inadequate responses to MTX; assay: Study 1 (adalimumab + MTX vs placebo + MTX, 12-month RCT plus OLE): radiographic progression (TSS, JE, JSN); format: in vivo, human
Procedure: The study design included a 12 month, double blind, randomized, placebo-controlled trial.
Patients were grouped into three cohorts based on baseline CRP concentrations: low (<1 mg/dL); intermediate (1-4 mg/dL); and high (>4 mg/dL). Analyses were further conducted in two categories of patients according to their change in CRP concentrations at Week 12: those with a ≧20% decrease in CRP from baseline; or those with a <20% decrease in CRP from baseline. The following efficacy and radiographic measures were analyzed at Week 52 in the three baseline CRP categories and in the two Week 12 change in CRP categories: DAS28, ACR 20/50/70, Health assessment questionnaire (HAQ), and Total Sharp score (TSS).
Two readers assessed X-rays performed at baseline (start of RCT), 1 year (end of RCT), and 3 years (post 2 years OLE). Changes from baseline in Total Sharp Score (TSS), Joint Erosions (JE), and Joint Space Narrowing (JSN) were calculated. ACR 20, 50, and 70 response rates, as well as TJC and SJC, were also measured.

## CN(Cc1cnc2nc(N)nc(N)c2n1)c1ccc(C(=O)N[C@@H](CCC(=O)O)C(=O)O)cc1 [MTX Monotherapy]
[1]; 1 year
  Patients who became ACR20 responders after increase to weekly dosing: 4%
  Patients who became ACR50 responders after increase to weekly dosing: 1%
  Patients who reached DAS28 < 2.6 (remission) after increase to weekly dosing: 0%
[1]; 2 years
  Patients who became ACR20 responders after increase to weekly dosing: 4%
  Patients who became ACR50 responders after increase to weekly dosing: 2%
  Patients who reached DAS28 < 2.6 (remission) after increase to weekly dosing: 1%
[1]; ACR70 for ≧6 consecutive months over a 2-year period
  Patients with Major Clinical Response after increase to weekly dosing: 1%

## NNC(=O)c1ccncc1 [INH, isoniazid, reference compound]
[2]; 835 patients who received INH
  patients who developed TB after INH prophylaxis: 0.5%
[2]; Study A, 712 high-risk subjects given INH before adalimumab
  subjects who developed TB after INH prophylaxis: 0.6%

## CN(Cc1cnc2nc(N)nc(N)c2n1)c1ccc(C(=O)N[C@@H](CCC(=O)O)C(=O)O)cc1 [placebo+mtx, methotrexate]
[3]
  mean HUI3 improvement from baseline: +0.07
  relative HUI3 improvement from baseline: +18%
Patients with RA [4]; week 24
  relative FACIT-F change from baseline: +9%
Patients with RA [4]
  mean FACIT-F change from baseline: 2.5
Patients with RA [4]; listed as placebo + MTX
  mean FACIT-F change from baseline: +2.5
Patients with RA [5]; week 24
  relative HUI3 change from baseline: +10%
Patients with RA [5]
  mean HUI3 change from baseline: 0.04
Patients with RA [5]; listed as Placebo + mtx
  mean HUI3 change from baseline: 0.04
Patients with RA [5]; listed as placebo + MTX
  mean HUI3 change from baseline: +0.04
[6]; 12 months (blinded)
  mean change from baseline in Total Sharp Score: 2.8
  mean change from baseline in joint erosion score: 1.7
  mean change from baseline in joint space narrowing score: 1.2
[6]; 36 months (open-label)
  mean change from baseline in joint erosion score: 1.7
  mean change from baseline in joint space narrowing score: 1.3
[6]; 36 months (open-label; all patients on adalimumab 40 mg eow + mtx after month 12)
  mean change from baseline in Total Sharp Score: 3.0
